# From article PMC6965176, “Targeting Forward and Reverse EphB4/EFNB2 Signaling by a Peptide with Dual Functions” (Scientific Reports, 2020)
# Non-standard residues stand in square brackets, D forms with d. Residues, ends and D or L forms follow the SMILES beside them.
# T1: EphB4 on the surface of A2780cp20 cells (Homo sapiens, UniProt P54760)
# T1 construct: endogenous in cells; host or cells: A2780cp20 ovarian cancer cells
# T1 sequence (P54760 16-987): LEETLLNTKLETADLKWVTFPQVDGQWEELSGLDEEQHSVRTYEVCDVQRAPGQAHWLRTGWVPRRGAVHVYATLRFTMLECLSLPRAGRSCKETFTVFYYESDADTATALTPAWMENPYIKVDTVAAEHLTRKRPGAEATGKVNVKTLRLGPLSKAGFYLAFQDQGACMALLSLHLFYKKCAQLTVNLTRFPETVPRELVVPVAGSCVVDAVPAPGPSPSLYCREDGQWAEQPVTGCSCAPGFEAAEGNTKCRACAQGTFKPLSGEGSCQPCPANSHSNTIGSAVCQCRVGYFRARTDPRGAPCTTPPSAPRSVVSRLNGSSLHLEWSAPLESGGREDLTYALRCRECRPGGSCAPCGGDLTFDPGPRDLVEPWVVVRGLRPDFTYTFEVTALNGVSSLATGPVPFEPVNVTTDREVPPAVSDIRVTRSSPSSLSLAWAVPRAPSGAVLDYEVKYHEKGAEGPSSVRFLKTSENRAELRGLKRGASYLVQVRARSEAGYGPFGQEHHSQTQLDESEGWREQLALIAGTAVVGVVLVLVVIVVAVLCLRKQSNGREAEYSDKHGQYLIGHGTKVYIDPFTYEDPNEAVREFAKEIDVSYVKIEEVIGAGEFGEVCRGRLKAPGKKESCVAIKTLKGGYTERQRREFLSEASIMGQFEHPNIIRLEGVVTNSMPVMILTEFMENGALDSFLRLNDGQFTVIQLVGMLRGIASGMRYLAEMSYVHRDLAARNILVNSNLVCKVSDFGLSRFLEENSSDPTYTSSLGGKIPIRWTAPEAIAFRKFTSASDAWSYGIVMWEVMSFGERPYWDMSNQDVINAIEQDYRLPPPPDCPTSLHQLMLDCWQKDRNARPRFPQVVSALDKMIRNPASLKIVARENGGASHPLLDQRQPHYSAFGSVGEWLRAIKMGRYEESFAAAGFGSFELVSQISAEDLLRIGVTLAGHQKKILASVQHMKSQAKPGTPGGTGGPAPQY
# Tests used:
# [1] = target: T1, EphB4 on the surface of A2780cp20 cells; experiment: Cell-based binding assay: displacement of EFNB2-Fc from A2780cp20 cells (flow cytometry); conditions: EFNB2-Fc 20 nM, BIDEN-AP 0-100 µM, 25 °C, 1 h, PE-anti-Fc flow cytometry, duplicate (Fig. 1D,E)
# Method: Figure 1 Novel EphB4 agonist BIDEN-AP has high receptor binding affinity. (A) Structure of BIDEN-AP. D-Tyr-P3 is highlighted in red. (B) Surface plasmon resonance (SPR) sensorgrams of BIDEN-AP. Vertical axes, in response units (RU), represent binding of the peptide to immobilized EphB4. (C) Competition of BIDEN-AP with EFNB2-Fc for EphB4 binding. BIDEN-AP at concentrations from 2 nM to 1000 nM was mixed with human EphB4 (30 nM) and injected onto sensor chips coated with EFNB2-Fc. (D) Competition of BIDEN-AP with EFNB2-Fc for EphB4 binding at the cellular level. A2780cp20 cells were co-incubated with EFNB2-Fc (20 nM) and BIDEN-AP (at concentrations from 0 to 100 µM) at 25 °C for 1 h. EFNB2-Fc bound to the cells was probed with phycoerythrin-labeled anti-Fc antibody and analyzed by flow cytometry. (E) Bound EFNB2-Fc as a function of BIDEN-AP concentration. […]
# A2780cp20 ovarian cancer cells (1×10^6 cells/mL) were incubated with EFNB2-Fc (20 nM) and BIDEN-AP at concentrations ranging from 0 to 100 µM at 25 °C for 1 h. After washings, EFNB2-Fc bound to the cells were probed with phycoerythrin (PE)-labeled anti-Fc antibody and analyzed by flow cytometry. Binding of BIDEN-AP to A2780cp20 cells was determined by its capacity to displace EFNB2-Fc’s binding to the tumor cells, measured by decreased PE fluorescence signal. Cells were analyzed in a Cellquest fluorocytometer (BD Bioscience, San Jose, CA). […]
# MDA-HGSC-1 PDX tumor = experiment: Subcutaneous MDA-HGSC-1 patient-derived xenograft model; assay type: in vivo, mice; conditions: 300 µg/injection i.p., 14 doses (Fig. S10B)
# Excerpt: Under Institutional Review Board (IRB protocol PA15-0441) and IACUC approval at MD Anderson Cancer Center, patients with HGSC who were being treated at MD Anderson gave consent for the use of their tumor tissue in this study. Four- to six-week-old female Balb C athymic nude mice (Harlan Laboratories) were implanted with one PDX 3×3×3 mm tumor cube (MDA-HGSOC-1 high-grade serous ovarian cancer; generation 9) in the dorsal flank to create subcutaneous HGSC-PDX model. Tumor size was monitored by caliber, and tumor volume was calculated using the formula V(cm^3) = (length x width^2)/2. Mice were randomly assigned to the PBS vehicle control or BIDEN-AP treatment group, 6 mice per group, once tumor size reached ~100 mm^3 (21 days after implantation). Treatments consisted of intraperitoneal injection of PBS or BIDEN-AP at 300 μg/injection (100 μL/injection) once every other day for a total of 14 doses. At the end of the study (day 49), all mice were euthanized, and tumors were collected, weighed, snap-frozen in optimal cutting temperature compound with liquid nitrogen, and cryosectioned into 5-μm sections for immunohistochemical staining of CD31 and Ki67 markers.
# incubated overnight at 4°C.
# Slides were subjected to recombinant terminal
# The slides were then labeled by adding
# Microvessel density was evaluated
# magnification from three tumor samples.
# For CD31 staining, slides were […]
# RF24 cells = experiment: Tubule formation of immortalized endothelial cells on Matrigel; assay type: cell-based; conditions: BIDEN-AP 15 µM or EFNB2-Fc 2 nM, 24 h, number of nodes (Fig. 4A,B)
# Method: Figure 4 BIDEN-AP–based agents inhibit tube formation and sensitize resistant endothelial cells to anti-VEGF antibody. (A,B) Tube formation by RF24 cells treated with EFNB2-Fc (2 nM) or BIDEN-AP (15 µM) compared to untreated controls (CTL). Representative data from three independent experiments are presented. (A) Representative microphotographs of tubes formed by RF24 cells are shown (n = 3). Images were taken at × 100 magnification. (B) Quantification of the number of nodes per field in three technical replicates. […] (C) Representative flow cytometry plots from three independent experiments of RF24_Bev cells are shown here. SYTOX-negative staining represents the live cell population.
# Matrigel (Becton Dickinson, Bedford, MA) was used to assess formation of capillary-like structures by RF24 cells on a basement membrane. Twelve-well Costar plates (Corning, Corning, NY) were coated with Matrigel (10 mg/mL) according to the manufacturer’s instructions. RF24 cells (1.0 × 10^4 cells/well) were seeded on Matrigel-coated plates and incubated at 37 °C for 60 min. […] The degree of tubule formation was determined by the number of nodes. […] The nodes for each image were counted manually. Five images (×100 magnification) per treatment were counted double blindly. Data are expressed as a percentage of the number of tubes in untreated control wells.
IC50 [1] [nM],Molecule,body weight change compared to control group (MDA-HGSC-1 PDX tumor),formation of capillary-like tubes (RF24 cells)
~1000,CC[C@H](C)[C@H](NC(=O)[C@@H]1CCCN1C(=O)CNC(=O)[C@H](CC(N)=O)NC(=O)[C@@H]1CCCN1C(=O)[C@H](CO)NC(=O)[C@H](Cc1ccccc1)NC(=O)[C@H](CC(C)C)NC(=O)[C@@H](Cc1ccc(O)cc1)NC(=O)[C@H](CC(N)=O)NC(=O)[C@@H](N)[C@@H](C)O)C(=O)N[C@@H](C)C(=O)N[C@@H](CCCNC(=N)N)C(=O)N[C@@H](C)C(=O)N[C@@H](Cc1c[nH]c2ccccc12)C(N)=O [BIDEN-AP] (H-TN[dY]LFSPNGPIARAW-NH2),did not cause body weight change,
,"EFNB2-Fc: ephrin B2 ligand fused to Fc, natural ligand of EphB4 (protein, left off: Fc, end not stated, kept, ephrin B2 ligand fused to Fc, natural ligand of EphB4) IVLEPIYWNSSNSKFLPGQGLVLYPQIGDKLDIICPKVDSKTVGQYEYYKVYMVDKDQADRCTIKKENTPLLNCAKPDQDIKFTIKFQEFSPNLWGLEFQKNKDYYIISTSNGSLEGLDNQEGGVCQTRAMKILMKVGQDASSAGSTRNKDPTRRPELEAGTNGRSSTTSPFVKPNPGSSTDGNSAGHSGNNILGSEVALFA",,significantly inhibited the formation of capillary-like tubes
